The source of these data is paper PMC7993727, “Discovery of a novel AR/HDAC6 dual inhibitor for prostate cancer treatment” (Aging (Albany NY), 2021).

One data set concerns TMPRSS2. Put plainly: TMPRSS2 mRNA (qRT-PCR) and protein (Western blot) expression in VCaP cells. In kind it is cell-based. The note with it: 10 nM DHT, 24 hours. The method, then: (§1) RNA expression level was analyzed by qRT-PCR and protein expression level was analyzed by Western blot. […] (I) Representative immunofluorescence microscopic images of VCaP cells for checking the subcellular localization of AR.
(§2) The RNA of VCaP cells was extracted using a Simply P Total RNA Extraction kit (Bioer technology) and cDNA was synthesized using a SMARTer PCR cDNA Synthesis Kit (Clontech). PSA and β-actin primers were synthesized by Sangon Biotech according to previous literature. Real-time PCR was performed using the PowerUp SYBR™ Green kit (ThermoFisher). The PCR program was run on a LightCycler 480II (Roche) and set as follows: 2 minutes at 95° C followed by 40 cycles of 30 seconds at 95° C, 15 seconds at 60° C and 30 seconds at 72° C. Data were quantified using the 2-ΔΔCt method based on the Ct values of PSA and β-actin from two parallel experiments performed in triplicate.
(§3) The whole-cell extracts were prepared in lysis buffer with a protease inhibitor cocktail (Bimake), while the xenograft tissue extracts were prepared in 0.5% Nonidet P 40 Substitute solution (Biosharp) with cocktail protease inhibitor (Bimake). Each sample containing 30 μg of total protein was loaded onto 10% SDS-PAGE and electrotransferred onto polyvinylidene fluoride membranes. […]
(Real-time PCR tracks product formation cycle by cycle.)

The next data set deals with PSA. Put plainly: PSA mRNA (qRT-PCR) and protein (Western blot) expression in VCaP cells. It counts as cell-based. Conditions: 10 nM DHT, 24 hours. On the procedure:
as §1, §2, §3

On the set-up of data set [1]: method as in PMID 27590197. Conditions: rats; cited from earlier work.
For the next data set, the target named is T1, HDAC6 (Homo sapiens, UniProt Q9UBN7).
T1 sequence (Q9UBN7 1-1215): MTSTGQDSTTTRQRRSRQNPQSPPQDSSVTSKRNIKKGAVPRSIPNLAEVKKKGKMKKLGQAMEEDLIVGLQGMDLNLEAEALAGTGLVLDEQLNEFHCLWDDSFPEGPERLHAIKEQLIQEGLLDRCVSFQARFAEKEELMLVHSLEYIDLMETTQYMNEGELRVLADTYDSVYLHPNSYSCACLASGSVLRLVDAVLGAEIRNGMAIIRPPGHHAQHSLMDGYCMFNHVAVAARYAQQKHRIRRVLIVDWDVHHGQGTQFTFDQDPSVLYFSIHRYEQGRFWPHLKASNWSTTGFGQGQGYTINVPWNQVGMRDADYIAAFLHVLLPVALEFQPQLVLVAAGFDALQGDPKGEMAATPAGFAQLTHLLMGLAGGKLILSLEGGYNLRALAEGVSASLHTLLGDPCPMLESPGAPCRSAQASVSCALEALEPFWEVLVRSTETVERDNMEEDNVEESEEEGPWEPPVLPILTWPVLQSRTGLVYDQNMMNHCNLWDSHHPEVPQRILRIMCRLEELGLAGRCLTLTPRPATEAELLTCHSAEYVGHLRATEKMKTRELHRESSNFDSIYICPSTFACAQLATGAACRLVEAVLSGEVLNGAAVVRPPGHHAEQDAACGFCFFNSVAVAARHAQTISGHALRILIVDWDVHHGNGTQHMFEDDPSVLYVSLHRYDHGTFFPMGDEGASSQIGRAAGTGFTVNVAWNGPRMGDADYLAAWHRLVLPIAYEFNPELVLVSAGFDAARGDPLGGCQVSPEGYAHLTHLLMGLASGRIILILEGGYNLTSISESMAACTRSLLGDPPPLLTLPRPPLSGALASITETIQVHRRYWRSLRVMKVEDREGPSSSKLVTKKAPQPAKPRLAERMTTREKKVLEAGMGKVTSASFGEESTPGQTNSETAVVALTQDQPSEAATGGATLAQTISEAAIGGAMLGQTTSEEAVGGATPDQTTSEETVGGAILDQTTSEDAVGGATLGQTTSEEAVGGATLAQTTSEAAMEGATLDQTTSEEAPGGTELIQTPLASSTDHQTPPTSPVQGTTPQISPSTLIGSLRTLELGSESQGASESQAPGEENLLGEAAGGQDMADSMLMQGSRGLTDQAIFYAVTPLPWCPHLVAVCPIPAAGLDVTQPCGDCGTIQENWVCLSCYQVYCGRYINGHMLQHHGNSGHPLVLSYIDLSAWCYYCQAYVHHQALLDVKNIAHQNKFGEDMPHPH
Put plainly: acetylation of α-tubulin (HDAC6 substrate) in VCaP cells, Western blot. It counts as cell-based. Conditions: 24 hours. The method, then: as §1
To evaluate the HDAC6 inhibition ability of Zeta55 in VCaP cells, the acetylation status of α-tubulin protein (a HDAC6 substrate) was assessed using western blot. […] We assessed the protein level of AR in VCaP cells.
The whole-cell extracts were prepared in lysis buffer with a protease inhibitor cocktail (Bimake), while the xenograft tissue extracts were prepared in 0.5% Nonidet P 40 Substitute solution (Biosharp) with cocktail protease inhibitor (Bimake). Each sample containing 30 μg of total protein was loaded onto 10% SDS-PAGE and electrotransferred onto polyvinylidene fluoride membranes. The membranes were blocked with 5% skimmed milk in PBST at room temperature for 2 hours and incubated with primary antibodies at 4° C overnight. After the membranes were washed with PBST three times, they were incubated with horseradish peroxidase-conjugated anti-rabbit or anti-mouse secondary antibody at room temperature for 1 hour. Chemiluminescent detection was performed with WesternBright ECL (Advansta). The immunoblots were visualized using the FluorChem FC3 system (ProteinSimple).
(In general: Immunoblotting shows a protein as a band on a membrane.)

Turning to `CNC(=O)c1ccc(N2C(=S)N(c3ccc(C#N)c(C(F)(F)F)c3)C(=O)C2(C)C)cc1F` [MDV3100, reference compound], the “DHT-induced endogenous mRNA and protein expression of TMPRSS2” value with TMPRSS2 is listed as “significantly suppressed”. The “DHT-induced endogenous mRNA and protein expression of PSA” value in the data set on PSA was “significantly suppressed”. In addition, in data set [1], the oral bioavailability is given as 97% and the plasma half-life was 8.56 h. Also, at HDAC6, the α-tubulin acetylation result was “did not”.
